In patent US20090220554A1, “Transglutaminase Inhibitors and Methods of Use Thereof” (priority 2005, published 2009):

biological target: T1, recombinant human tissue transglutaminase 2 (TG2) (Homo sapiens, UniProt P21980); experiment: TG2 deamidation assay (GDH-coupled fluorescent NADH assay, Z-Gln-Gly substrate); format: biochemical; settings: fluorescent NADH-based deamidation assay; from log(concentration)-response relationships; read-out: IC50 for inhibition of TG2
T1 construct: 6xHis; made in house; host or cells: E. coli BL21
T1 sequence (P21980 1-687): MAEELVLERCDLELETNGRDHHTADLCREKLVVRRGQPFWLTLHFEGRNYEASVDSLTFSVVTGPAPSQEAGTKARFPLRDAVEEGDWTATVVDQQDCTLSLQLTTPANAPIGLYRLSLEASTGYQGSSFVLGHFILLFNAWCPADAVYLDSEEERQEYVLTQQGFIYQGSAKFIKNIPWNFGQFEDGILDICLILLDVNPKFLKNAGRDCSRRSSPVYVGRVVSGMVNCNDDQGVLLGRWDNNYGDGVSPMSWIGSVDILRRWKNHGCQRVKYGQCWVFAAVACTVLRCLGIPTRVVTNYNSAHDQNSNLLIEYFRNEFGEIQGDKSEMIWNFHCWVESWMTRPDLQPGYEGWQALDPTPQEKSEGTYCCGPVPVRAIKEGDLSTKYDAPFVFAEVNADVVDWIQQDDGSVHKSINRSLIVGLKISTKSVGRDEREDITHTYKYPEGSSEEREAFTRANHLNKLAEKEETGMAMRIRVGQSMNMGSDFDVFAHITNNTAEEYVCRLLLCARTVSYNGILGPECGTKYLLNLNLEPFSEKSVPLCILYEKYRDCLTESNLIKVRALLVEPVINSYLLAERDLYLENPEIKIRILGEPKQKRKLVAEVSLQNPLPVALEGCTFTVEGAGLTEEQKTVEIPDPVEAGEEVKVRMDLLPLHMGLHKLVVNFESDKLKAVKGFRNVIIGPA
Description: The illustrative compounds of the invention described above were tested in a TG2 assay with recombinant human tissue transglutaminase, as described in the Examples. […] It should be noted that, although […] inhibition is observed upon addition of these compounds, this observation may result from the ability of some inhibitors to bind to the GTP binding site of TG2. […] Thus, it follows that pharmacologically useful inhibitors of TG2 could be identified based on their ability to bind to either the enzyme active site or the GTP binding site. Purification of recombinant human TG2. […] The enzyme was isolated from cell lysates using nickel affinity chromatography. Following a buffer exchange, TG2 was purified further by ion-exchange (HiTrap-Q) chromatography using an Akta-FPLC system (Amersham Biosciences). […] Assays of tissue transglutaminase activity. The transamidation activity of TG2 was measured as described by Slaughter, et al. Anal Biochem, 1992. 205(1): p. 166-71. Briefly, 96-well Maxisorp plates (Nunc, Inc.) were coated with […] N′—N′-dimethylated casein overnight at 4° C. […] The deamidation activity of TG2 was measured essentially as described previously (Piper, et al. Biochemistry, 2002. 41(1): p. 386-93). […] TG2-catalyzed production of ammonium ions was monitored through the coupled oxidation of NADH by GDH. NADH levels were monitored by fluorescence (excitation: 341 nm; emission 451 nm) and were standardized with known amounts of NADH. During enzymatic reactions, NADH levels were monitored kinetically using a Fluoroskan II (Labsystems, Inc.) 96-well plate reader and a lag time of four minutes. These values were determined through analysis of the log(concentration)-response relationships.

Structure (SMILES) | IC50 [µM]
Cc1ccc2c(c1)C(=O)C(=O)N2CC(=O)Nc1ccc(S(=O)(=O)NCC2CCCO2)cc1 (stereo not shown) [CSRF-8] | 150
O=C1Nc2ccc(Oc3ccc4c(c3)C(=O)C(=O)N4)cc2C1=O [CSRF-18, di-(1H-indole-2,3-dione-5-yl)-ether] | 23
O=C(CN1C(=O)C(=O)c2ccccc21)Nc1ccc(N2CCN(C(=O)c3cccs3)CC2)cc1 [CSRF-6, 2-(2,3-dioxo-2,3-dihydro-indol-1-yl)-N-{4-[4-(thiophene-2-carbonyl)-piperazin-1-yl]-phenyl}-acetamide] | 17
O=C(CSc1nnc2c(n1)[nH]c1ccc(F)cc12)OC1CCCCC1 [CSRF-2, (6-fluoro-9H-1,3,4,9-tetraaza-fluoren-2-ylsulfanyl)-acetic acid cyclohexyl ester] | 36
Cc1cccc(NC(=S)N(Cc2cc3ccc(C)c(C)c3[nH]c2=O)CC2CCCO2)c1 (stereo not shown) [CSRF-3, 1-(7,8-dimethyl-2-oxo-1,2-dihydro-quinolin-3-ylmethyl)-1-(tetrahydrofuran-2-ylmethyl)-3-m-tolyl-thiourea] | 30
CC1=CC(C)(C)N2C(=O)C(=O)c3cc(OC(=O)C4CCCO4)cc1c32 (stereo not shown) [CSRF-24, tetrahydrofuran-2-carboxylic acid 4,4,6-trimethyl-1,2-dioxo-1,2-dihydro-4H-pyrrolo[3,2,1-ij]quinolin-8-yl ester] | 450
O=C(CN1C(=O)C(=O)c2cc(Br)ccc21)NCC1CC1 [CSRF-7, 2-(5-bromo-2,3-dioxo-2,3-dihydro-indol-1-yl)-N-cyclopropylmethyl-acetamide] | 30
O=C1C(=O)N(C(=O)NC2CCCCC2)c2ccc(Br)cc21 [CSRF-20, 5-bromo-2,3-dioxo-2,3-dihydro-indole-1-carboxylic acid cyclohexylamide] | 110
O=C1Nc2ccc(Cc3ccc4c(c3)C(=O)C(=O)N4)cc2C1=O [CSRF-14, 1,1-di-(1H-indole-2,3-dione-5-yl)-methane] | 16
O=C(NNC(=O)C1=NOC(CNc2ncc(C(F)(F)F)cc2Cl)C1)Nc1ccc(Cl)cc1 (stereo not shown) [CSRF-13, 1-(4-chloro-phenyl)-3-(2-{5-[3-chloro-5-trifluoromethyl-pyridin-2-ylamino)-methyl]-4,5-dihydro-isoxazol-3-yl}-carboxamido-N-urea] | 250
CCN1C(=O)c2cccc3c(NC(=O)CSc4ccc5ccccc5n4)ccc1c23 [CSRF-17] | 200

biological target: T1, recombinant human tissue transglutaminase 2 (TG2); experiment: TG2 transamidation assay (5-(biotinamido)pentylamine incorporation into dimethylated casein); format: biochemical; settings: not given
Excerpt: Purification of recombinant human TG2. TG2 was purified from eight 1 L cultures of the BL21 strain of E. coli expressing a plasmid encoding recombinant, 6×-His tagged human tissue transglutaminase 2 (TG2). The enzyme was isolated from cell lysates using nickel affinity chromatography. Following a buffer exchange, TG2 was purified further by ion-exchange (HiTrap-Q) chromatography using an Akta-FPLC system (Amersham Biosciences). Fractions containing purified TG2 were pooled, exchanged into low salt buffer (20 mM Tris-Cl, 1 mM EDTA, 1 mM DTT, pH 7.2), supplemented with 10% glycerol, flash frozen in 100 μL aliquots and stored at −80° C.
Assays of tissue transglutaminase activity. The transamidation activity of TG2 was measured as described by Slaughter, et al. Anal Biochem, 1992. […] 5-BP incorporated by TG2 was visualized by binding of a streptavidin-alkaline phosphatase conjugate (Sigma) and kinetic measurement of the dephosphorylation of pNPP was monitored at 410 nm using a ThermoMax microplate reader (Molecular Devices). The deamidation activity of TG2 was measured essentially as described previously (Piper, et al. Biochemistry, 2002. 41(1): p. 386-93). […] TG2-catalyzed production of ammonium ions was monitored through the coupled oxidation of NADH by GDH. NADH levels were monitored by fluorescence (excitation: 341 nm; emission 451 nm) and were standardized with known amounts of NADH. […]

Structure (SMILES) | IC50 [µM]
O=C1NC(=O)N(c2cccc(Cl)c2)C(=O)/C1=N/c1ccc(Cl)c(CN2C(=O)c3ccccc3C2=O)c1 [CSRF-21, 5-[4-Chloro-3-(1,3-dioxo-1,3-dihydro-isoindol-2-ylmethyl)-phenylimino]-1-(3-chloro-phenyl)-pyrimidine-2,4,6-trione] | 10

tested on: neurologic cancer; experiment: not given; settings: at concentrations of 12.5-50 mg/kg; cited from earlier work

Structure (SMILES) | activity in a mouse model for neurologic cancer
O=C(N[C@@H](Cc1ccc(O)cc1)C(=O)NCC1CC(Br)=NO1)OCc1ccccc1 (stereo partly shown) [KCC009] | active
